Measurements as given in patent US12509444B2, “Compounds and methods for CD73 modulation and indications therefor” (Plexxikon Inc., priority 2019, dated 2025).
pIC50: −log10 of the molar value.

Experiments:
[1] = target: T1, Human CD73 (amino acid residues 27-549) (Homo sapiens, UniProt P21589); assay: CD73 enzymatic assay (luciferase-based indirect assay, CellTiter-Glo); type: biochemical; conditions: 0.4 nM CD73, 150 μM AMP, 1 hour at room temperature
T1 construct: Human CD73 (amino acid residues 27-549); His tag (N); made in house; host or cells: E. coli
T1 sequence (P21589 27-549): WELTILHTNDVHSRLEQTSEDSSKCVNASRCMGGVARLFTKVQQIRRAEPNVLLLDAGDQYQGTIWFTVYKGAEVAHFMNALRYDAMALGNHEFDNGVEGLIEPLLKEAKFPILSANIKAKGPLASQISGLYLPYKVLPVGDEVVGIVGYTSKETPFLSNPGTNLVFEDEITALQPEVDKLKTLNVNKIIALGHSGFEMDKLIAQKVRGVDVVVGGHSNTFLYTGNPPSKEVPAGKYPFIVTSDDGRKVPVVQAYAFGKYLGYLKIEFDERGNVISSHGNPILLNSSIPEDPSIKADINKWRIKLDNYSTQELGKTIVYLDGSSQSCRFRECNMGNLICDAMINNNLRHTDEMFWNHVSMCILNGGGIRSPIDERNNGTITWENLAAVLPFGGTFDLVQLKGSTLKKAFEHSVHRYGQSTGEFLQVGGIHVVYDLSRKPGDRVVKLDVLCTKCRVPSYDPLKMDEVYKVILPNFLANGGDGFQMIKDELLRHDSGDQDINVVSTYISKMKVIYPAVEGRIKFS
Summary of the method: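 His-tagged human CD73 (27-549) from E. coli, 0.4 nM, with 150 μM AMP in 50 mM HEPES pH 7.4, 0.01% Tween 20; 1 h at room temperature. AMP remaining read by CellTiter-Glo 2.0 luminescence with 1 μM final ATP after 30 min. IC50 from nonlinear regression of % inhibition.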

human CD73 = target: T2, human CD73 (Homo sapiens, UniProt P21589); assay: Inhibitor activity against CD73 in cell based assay (CD73 expressing CHO-K1 cells); conditions: CHO-K1 cells expressing human CD73, 150 μM AMP, 4 hours of incubation; read-out: CHO-K1 CELL VARIANT: CD73 IC50
T2 construct: expressed in transfected cells
T2 sequence (P21589 27-549): T1 sequence (P21589 27-549)
Summary of the method: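 Stably transfected CHO-K1 cells expressing human CD73 (1×10^4/well) incubated 4 h with compound (8-point 1:3 titration, top 10 μM final, 0.2% DMSO) and 150 μM AMP. Residual AMP in supernatant measured by CellTiter-Glo luminescence with 1 μM ATP after 30 min at room temperature; IC50 by nonlinear regression of percent inhibition vs high/low controls.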

For `Cc1cc(C(=O)N2CCC(NC(=O)O[C@@H]3CCN(c4cn[nH]c(=O)c4Cl)C3)CC2)no1` [P-0499, (R)-1-(5-chloro-6-oxo-1,6-dihydropyridazin-4-yl)pyrrolidin-3-yl (1-(5-methylisoxazole-3-carbonyl)piperidin-4-yl)carbamate], the pIC50 [1] was 5.00 to 9.00 and the pIC50 (human CD73) was 5.00 to 9.00.
Work on `Cc1nc(C)c(C(=O)N2CCC(NC(=O)O[C@@H]3CCN(c4cn[nH]c(=O)c4Cl)C3)CC2)o1` [P-0500, (R)-1-(5-chloro-6-oxo-1,6-dihydropyridazin-4-yl)pyrrolidin-3-yl (1-(2,4-dimethyloxazole-5-carbonyl)piperidin-4-yl)carbamate] yielded a pIC50 [1] of 5.00 to 9.00 and a pIC50 (human CD73) of 5.00 to 9.00.
Work on `Cc1nc(C(=O)N2CCC(NC(=O)O[C@@H]3CCN(c4cn[nH]c(=O)c4Cl)C3)CC2)cs1` [P-0501, (R)-1-(5-chloro-6-oxo-1,6-dihydropyridazin-4-yl)pyrrolidin-3-yl (1-(2-methylthiazole-4-carbonyl)piperidin-4-yl)carbamate] yielded a pIC50 [1] of 5.00 to 9.00 and a pIC50 (human CD73) of 5.00 to 9.00.
`Cc1occc1C(=O)N1CCC(NC(=O)O[C@@H]2CCN(c3cn[nH]c(=O)c3Cl)C2)CC1` [P-0502, (R)-1-(5-chloro-6-oxo-1,6-dihydropyridazin-4-yl)pyrrolidin-3-yl (1-(2-methylfuran-3-carbonyl)piperidin-4-yl)carbamate] gave a pIC50 [1] of 5.00 to 9.00 and a pIC50 (human CD73) of 5.00 to 9.00.
For `Cc1ncoc1C(=O)N1CCC(NC(=O)O[C@@H]2CCN(c3cn[nH]c(=O)c3Cl)C2)CC1` [P-0503, (R)-1-(5-chloro-6-oxo-1,6-dihydropyridazin-4-yl)pyrrolidin-3-yl (1-(4-methyloxazole-5-carbonyl)piperidin-4-yl)carbamate], the pIC50 [1] was 5.00 to 9.00 and the pIC50 (human CD73) was 5.00 to 9.00.
`Cc1noc(C)c1C(=O)N1CCC(NC(=O)O[C@@H]2CCN(c3cn[nH]c(=O)c3Cl)C2)CC1` [P-0504, (R)-1-(5-chloro-6-oxo-1,6-dihydropyridazin-4-yl)pyrrolidin-3-yl (1-(3,5-dimethylisoxazole-4-carbonyl)piperidin-4-yl)carbamate] was tested, and the pIC50 [1] was 5.00 to 9.00 and the pIC50 (human CD73) was 5.00 to 9.00.
Work on `Cc1nonc1C(=O)N1CCC(NC(=O)O[C@@H]2CCN(c3cn[nH]c(=O)c3Cl)C2)CC1` [P-0505, (R)-1-(5-chloro-6-oxo-1,6-dihydropyridazin-4-yl)pyrrolidin-3-yl (1-(4-methyl-1,2,5-oxadiazole-3-carbonyl)piperidin-4-yl)carbamate] yielded a pIC50 [1] of 5.00 to 9.00 and a pIC50 (human CD73) of 5.00 to 9.00.
`O=C(NC1CCCC(F)(F)C1)O[C@H]1CN(c2cn[nH]c(=O)c2Cl)C[C@@H]1F` (stereo partly drawn) [P-0506, (3S,4S)-1-(5-chloro-6-oxo-1,6-dihydropyridazin-4-yl)-4-fluoropyrrolidin-3-yl (3,3-difluorocyclohexyl)carbamate] was tested, and the pIC50 [1] was 5.00 to 9.00 and the pIC50 (human CD73) was 5.00 to 9.00.
For `O=C(NC1CCCC(F)(F)C1)O[C@H]1CN(c2cnn(CCO)c(=O)c2Cl)C[C@@H]1F` (stereo partly drawn) [P-0507, (3S,4S)-1-(5-chloro-1-(2-hydroxyethyl)-6-oxo-1,6-dihydropyridazin-4-yl)-4-fluoropyrrolidin-3-yl (3,3-difluorocyclohexyl)carbamate], the pIC50 [1] was 5.00 to 9.00 and the pIC50 (human CD73) was 5.00 to 9.00.
`O=C(N[C@@H]1CCC[C@H]1CO)O[C@@H]1CCN(c2cn[nH]c(=O)c2Cl)C1` [P-0508, (R)-1-(5-chloro-6-oxo-1,6-dihydropyridazin-4-yl)pyrrolidin-3-yl ((1R,2R)-2-(hydroxymethyl)cyclopentyl) carbamate] was tested, and the pIC50 [1] was 5.00 to 9.00 and the pIC50 (human CD73) was 5.00 to 9.00.
For `O=C(N[C@@H]1CCC[C@H]1C(F)F)O[C@@H]1CCN(c2cn[nH]c(=O)c2Cl)C1` [P-0509, (R)-1-(5-chloro-6-oxo-1,6-dihydropyridazin-4-yl)pyrrolidin-3-yl ((1R,2R)-2-(difluoromethyl)cyclopentyl) carbamate], the pIC50 [1] was 5.00 to 9.00 and the pIC50 (human CD73) was 5.00 to 9.00.
In the case of `CC(F)(F)[C@@H]1CCC[C@H]1NC(=O)O[C@@H]1CCN(c2cn[nH]c(=O)c2Cl)C1` [P-0510, (R)-1-(5-chloro-6-oxo-1,6-dihydropyridazin-4-yl)pyrrolidin-3-yl ((1R,2R)-2-(1,1-difluoroethyl)cyclopentyl) carbamate], the pIC50 [1] was 5.00 to 9.00 and the pIC50 (human CD73) was 5.00 to 9.00.
